From US20090093541A1, “MELANIN ELIMINATOR PREPARATION” (OGA RESEARCH, INC, priority 2002, published 2009) come the findings set out here.

In one test the test system is blotches and lentigines. The experiment in a line: Lotion applied to blotches and lentigines (general description). The settings on record: lotion containing 0.5 (w/w)%; applied one or two times daily; about one month. In kind it is in vivo, human. The source says: The effect was also noted on blotches formed on the acne scars, showing clear difference compared with the pre-treatment conditions.

For test [1], the system named is lentigo (1-mm diameter) on the arm. Briefly: Test Example 5: topical application to a lentigo on the arm. The test is classed as in vivo, human. The settings on record: topically applied twice daily, preparation according to Preparation Example 1, two months later. Here is the method: To a lentigo (1-mm diameter) on the arm was topically applied twice daily a preparation that was prepared according to Preparation Example 1 except that N-(6,8-dimercaptooctanoyl)histidine sodium/zinc chelate of Example 2 was used instead of N-(6,8-dimercaptooctanoyl)anthranilic acid sodium/zinc chelate of Example 2.

Consider “N-(6,8-dimercaptooctanoyl)-3-aminopropionic acid sodium/zinc chelate compound [Example 10]”, for which, in the test on blotches and lentigines, the “melanin eliminating effect on blotches and lentigines (fading from black to pale umber or falling off as a scab)” value is recorded as “satisfactory effects”.
With “N-(6,8-dimercaptooctanoyl)anthranilic acid sodium/zinc chelate compound [Reference Example 8]”, the “melanin eliminating effect on blotches and lentigines (fading from black to pale umber or falling off as a scab)” value in the test with blotches and lentigines was “satisfactory effects”.
Take “N-(6,8-dimercaptooctanoyl)histidine sodium/zinc chelate compound [Example 2]”: in test [1], the “elimination of black color of lentigo” value is given as “the black color was found eliminated leaving a subtle scar behind”.
